ChEMBL document CHEMBL5113408, “Design, synthesis and antitumour activity of novel 5(6)-amino-benzimidazolequinones containing a fused morpholine” (Eur J Med Chem, 2022)
Activity calls are given as the source filed them. The rule behind the calls is not given here.

Experiments:
[1] = test system: HGC-27; test: Induction of DNA damage in human HGC-27 cells assessed as appearance of longer comet tail at 4 uM; format: functional, cell-based
[2] = test system: MGC-803; test: Induction of cell cycle arrest in human MGC-803 cells assessed as decrease in cyclin-B1 level at 1 to 4 uM by Western blot analysis; format: functional, cell-based; settings: dose 1-4 µM
[3] = test system: MGC-803; test: Activation of ROS/JNK signalling in human MGC-803 cells assessed as increase in p-JNK level at 1 to 4 uM by Western blot analysis; format: cell-based; settings: filed as activator, dose 1-4 µM
[4] = test system: MGC-803; test: Antitumor activity against human MGC-803 cells xenografted with BALB/c mouse assessed as wrinkled nuclei at 10 to 20 mg/kg, ip administered once every two days; format: functional, organism-based; settings: dose 10-20 mg/kg
[5] = test system: HGC-27; test: Induction of apoptosis in human HGC-27 cells assessed as decrease in caspase 9 protein expression level at 1 to 4 uM incubated for 48 hrs by Western blot analysis; format: functional, cell-based; settings: dose 1-4 µM
[6] = test system: MGC-803; test: Antitumor activity against human MGC-803 cells xenografted with BALB/c mouse assessed as reduction in tumor growth at 10 to 20 mg/kg, ip administered once every two days; format: functional, organism-based; settings: dose 10-20 mg/kg
[7] = test system: MGC-803; test: Induction of apoptosis in human MGC-803 cells assessed as increase in bax/bcl-2 expression level at 1 to 4 uM incubated for 48 hrs by Western blot analysis; format: functional, cell-based; settings: dose 1-4 µM
[8] = Toxicity in BALB/c mouse xenografted with human MGC-803 cells assessed as effect on liver at 10 to 20 mg/kg, ip administered once every two days measured after 15 days by H and E staining based assay; format: organism-based; settings: in vivo, 360 h, dose 10-20 mg/kg, time 15 day
[9] = test system: MGC-803; test: Induction of apoptosis in human MGC-803 cells incubated for 48 hrs by Annexin-V FITC staining based flow cytometry analysis; format: functional, cell-based; settings: dose 1-4 µM, DDE = dose-dependent effect
[10] = test system: HGC-27; test: Induction of apoptosis in human HGC-27 cells incubated for 48 hrs by Annexin V-FITC and PI staining based flow cytometry analysis; format: functional
[11] = test system: MGC-803; test: Antiproliferative activity against human MGC-803 cells assessed as inhibition of cell growth incubated for 72 hrs by SRB assay; format: functional, cell-based; settings: MGC-803, 72 h
[12] = Antiproliferative activity against human L02 cells assessed as inhibition of cell growth incubated for 72 hrs by SRB assay; format: toxicity, cell-based
[13] = test system: MGC-803; test: Antiproliferative activity against human MGC-803 cells assessed as inhibition of cell growth at 0.25 to 8 uM by SRB assay; format: functional, cell-based; settings: dose 0.25-8 µM, time 24-72 hrs, TDE = time-dependent effect
[14] = test system: HGC-27; test: Antiproliferative activity against human HGC-27 cells assessed as inhibition of cell growth incubated for 72 hrs by SRB assay; format: functional, cell-based; settings: HGC-27, 72 h
[15] = Toxicity in BALB/c mouse xenografted with human MGC-803 cells assessed as effect on AST level at 10 to 20 mg/kg, ip administered once every two days; format: organism-based; settings: in vivo, dose 10-20 mg/kg
[16] = test system: MGC-803; test: Induction of cell cycle arrest in human MGC-803 cells assessed as accumulation of cells at G1 phase at 1 uM incubated for 36 hrs by PI staining based flow cytometry analysis (reference value: 45.8%); format: functional
[17] = test system: MGC-803; test: Induction of apoptosis in human MGC-803 cells assessed as increase in cleaved caspase 3 protein expression level at 1 to 4 uM incubated for 48 hrs by Western blot analysis; format: functional, cell-based; settings: dose 1-4 µM
[18] = test system: MGC-803; test: Induction of cell cycle arrest in human MGC-803 cells assessed as accumulation of cells at S phase at 1 uM incubated for 36 hrs by PI staining based flow cytometry analysis (reference value: 20.5%); format: functional
[19] = test system: HGC-27; test: Induction of cell cycle arrest in human HGC-27 cells assessed as accumulation of cells at G1 phase at 1 uM incubated for 36 hrs by PI staining based flow cytometry analysis (reference value: 49.6%); format: functional
[20] = test system: HGC-27; test: Induction of cell cycle arrest in human HGC-27 cells assessed as decrease in p-cdc25c level at 1 to 4 uM by Western blot analysis; format: functional, cell-based; settings: dose 1-4 µM
[21] = test system: MGC-803; test: Induction of cell cycle arrest in human MGC-803 cells assessed as accumulation of cells at S phase at 4 uM incubated for 36 hrs by PI staining based flow cytometry analysis (reference value: 20.5%); format: functional
[22] = test system: HGC-27; test: Induction of cell cycle arrest in human HGC-27 cells assessed as accumulation of cells at G2/M phase at 1 uM incubated for 36 hrs by PI staining based flow cytometry analysis (reference value: 26.2%); format: functional
[23] = test system: HGC-27; test: Activation of ROS/JNK signalling in human HGC-27 cells assessed as increase in p-JNK level at 1 to 4 uM by Western blot analysis; format: cell-based; settings: filed as activator, dose 1-4 µM
[24] = test system: ECa-109 cell line; test: Antiproliferative activity against human EC109 cells assessed as inhibition of cell growth by SRB assay; format: functional, cell-based
[25] = test system: MGC-803; test: Induction of apoptosis in human MGC-803 cells assessed as decrease in caspase 7 protein expression level at 1 to 4 uM incubated for 48 hrs by Western blot analysis; format: functional, cell-based; settings: dose 1-4 µM
[26] = Toxicity in BALB/c mouse xenografted with human MGC-803 cells assessed as effect on creatinine level at 10 to 20 mg/kg, ip administered once every two days; format: organism-based; settings: in vivo, dose 10-20 mg/kg
[27] = test system: HGC-27; test: Induction of apoptosis in human HGC-27 cells incubated for 48 hrs in presence of NAC by Annexin V-FITC and PI staining based flow cytometry analysis; format: functional
[28] = test system: MGC-803; test: Induction of apoptosis in human MGC-803 cells incubated for 48 hrs by Annexin V-FITC and PI staining based flow cytometry analysis; format: functional
[29] = test system: MCF7; test: Antiproliferative activity against human MCF7 cells assessed as inhibition of cell growth by SRB assay; format: functional, cell-based
[30] = test system: HGC-27; test: Induction of apoptosis in human HGC-27 cells assessed as decrease in caspase 7 protein expression level at 1 to 4 uM incubated for 48 hrs by Western blot analysis; format: functional, cell-based; settings: dose 1-4 µM
[31] = test system: HGC-27; test: Induction of apoptosis in human HGC-27 cells assessed as increase in cleaved caspase 9 protein expression level at 1 to 4 uM incubated for 48 hrs by Western blot analysis; format: functional, cell-based; settings: dose 1-4 µM
[32] = Toxicity in BALB/c mouse xenografted with human MGC-803 cells assessed as effect on spleen at 10 to 20 mg/kg, ip administered once every two days measured after 15 days by H and E staining based assay; format: organism-based; settings: in vivo, 360 h, dose 10-20 mg/kg, time 15 day
[33] = test system: HGC-27; test: Antiproliferative activity against human HGC-27 cells assessed as inhibition of cell growth incubated for 24 to 72 hrs by SRB assay; format: functional, cell-based; settings: dose 0.25-8 µM, time 24-72 hrs, DDE = dose-dependent effect
[34] = test system: HGC-27; test: Induction of cell cycle arrest in human HGC-27 cells assessed as accumulation of cells at G2/M phase at 2 uM incubated for 36 hrs by PI staining based flow cytometry analysis (reference value: 26.2%); format: functional
[35] = test system: MGC-803; test: Induction of apoptosis in human MGC-803 cells incubated for 48 hrs in presence of NAC by Annexin V-FITC and PI staining based flow cytometry analysis; format: functional
[36] = test system: MGC-803; test: Antiproliferative activity against human MGC-803 cells assessed as inhibition of cell growth incubated for 24 to 72 hrs by SRB assay; format: functional, cell-based; settings: dose 0.25-8 µM, time 24-72 hrs, DDE = dose-dependent effect
[37] = Toxicity in BALB/c mouse xenografted with human MGC-803 cells assessed as effect on ALT level at 10 to 20 mg/kg, ip administered once every two days; format: organism-based; settings: in vivo, dose 10-20 mg/kg

For `Cc1ccc(NC2=CC(=O)c3nc4n(c3C2=O)[C@H]2OC[C@@H](O)[C@H]2OC4)cc1C`, the Activity [1] was “Active”, the Activity [2] was “Active” and the Activity [3] was “Active”. The Activity [4] was “Active”, the Activity [5] was “Active” and the Activity [6] was “Active”. The Activity [7] was “Active”, the Activity [8] was “Non-Toxic” and the Activity [9] was “Dde”. The Activity [10] was 54.5%, the IC50 [11] was 860 nM and the IC50 at 72 h [12] was 24800 nM. For the same compound, the Activity [13] was “Tde”, the IC50 [14] was 1740 nM and the Activity [15] was “Non-Toxic”. For the same compound, the Activity [16] was 33.6%, the Activity [17] was “Active” and the Activity [18] was 35.4%. For the same compound, the Activity [19] was 49.3%, the Activity [20] was “Active” and the Activity [21] was 34.1%. For the same compound, the Activity [22] was 28.8%, the Activity [23] was “Active” and the IC50 [24] was 2820 nM. The Activity [25] was “Active”, the Activity [26] was “Non-Toxic” and the Activity [27] was 1.4%. The Activity [28] was 55.4%, the IC50 [29] was 2080 nM and the Activity [30] was “Active”. The Activity [31] was “Active”, the Activity [32] was “Non-Toxic” and the Activity [33] was “Dde”. For the same compound, the Activity [34] was 32.3%, the Activity [35] was 9.29% and the Activity [36] was “Dde”. For the same compound, the Activity [37] was “Non-Toxic”.
